According to US10457677B2 (priority 2015, dated 2019):
Where a name gives a salt, the structure may show the parent alone. Read-outs that look alike come from different tables or passages of the source.

What was measured:
[1] = system: phosphorylation of CHK2 (phospho-Thr68) in HCT116 cells; test: Cellular pCHK2 assay: bleomycin-induced phosphorylation of CHK2 (phospho-Thr68), immunofluorescence high-content analysis; format: cell-based, human; settings: Homo sapiens, HCT-116, 4 h, read-out: IC50 (pCHK2)
In short: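 HCT116 cells in DMEM with 10% FCS, incubated overnight at 37° C, then given compounds (1 nM to 30 μM, 0.5% DMSO) together with 10 μM bleomycin. Phospho-Thr68 CHK2 immunostained and imaged by high-content imager; nuclei with pCHK2 above background counted, cell count from propidium iodide DNA stain.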

[2] = target: purified human recombinant ATM (ataxia telangiectasia mutated), full length (Homo sapiens (Human), UniProt Q13315); test: ATM kinase assay - determination of ATM inhibition (IC50 ATM), TR-FRET; format: biochemical
purified human recombinant ATM (ataxia telangiectasia mutated), full length, sequence (Q13315 whole entry, change not shown): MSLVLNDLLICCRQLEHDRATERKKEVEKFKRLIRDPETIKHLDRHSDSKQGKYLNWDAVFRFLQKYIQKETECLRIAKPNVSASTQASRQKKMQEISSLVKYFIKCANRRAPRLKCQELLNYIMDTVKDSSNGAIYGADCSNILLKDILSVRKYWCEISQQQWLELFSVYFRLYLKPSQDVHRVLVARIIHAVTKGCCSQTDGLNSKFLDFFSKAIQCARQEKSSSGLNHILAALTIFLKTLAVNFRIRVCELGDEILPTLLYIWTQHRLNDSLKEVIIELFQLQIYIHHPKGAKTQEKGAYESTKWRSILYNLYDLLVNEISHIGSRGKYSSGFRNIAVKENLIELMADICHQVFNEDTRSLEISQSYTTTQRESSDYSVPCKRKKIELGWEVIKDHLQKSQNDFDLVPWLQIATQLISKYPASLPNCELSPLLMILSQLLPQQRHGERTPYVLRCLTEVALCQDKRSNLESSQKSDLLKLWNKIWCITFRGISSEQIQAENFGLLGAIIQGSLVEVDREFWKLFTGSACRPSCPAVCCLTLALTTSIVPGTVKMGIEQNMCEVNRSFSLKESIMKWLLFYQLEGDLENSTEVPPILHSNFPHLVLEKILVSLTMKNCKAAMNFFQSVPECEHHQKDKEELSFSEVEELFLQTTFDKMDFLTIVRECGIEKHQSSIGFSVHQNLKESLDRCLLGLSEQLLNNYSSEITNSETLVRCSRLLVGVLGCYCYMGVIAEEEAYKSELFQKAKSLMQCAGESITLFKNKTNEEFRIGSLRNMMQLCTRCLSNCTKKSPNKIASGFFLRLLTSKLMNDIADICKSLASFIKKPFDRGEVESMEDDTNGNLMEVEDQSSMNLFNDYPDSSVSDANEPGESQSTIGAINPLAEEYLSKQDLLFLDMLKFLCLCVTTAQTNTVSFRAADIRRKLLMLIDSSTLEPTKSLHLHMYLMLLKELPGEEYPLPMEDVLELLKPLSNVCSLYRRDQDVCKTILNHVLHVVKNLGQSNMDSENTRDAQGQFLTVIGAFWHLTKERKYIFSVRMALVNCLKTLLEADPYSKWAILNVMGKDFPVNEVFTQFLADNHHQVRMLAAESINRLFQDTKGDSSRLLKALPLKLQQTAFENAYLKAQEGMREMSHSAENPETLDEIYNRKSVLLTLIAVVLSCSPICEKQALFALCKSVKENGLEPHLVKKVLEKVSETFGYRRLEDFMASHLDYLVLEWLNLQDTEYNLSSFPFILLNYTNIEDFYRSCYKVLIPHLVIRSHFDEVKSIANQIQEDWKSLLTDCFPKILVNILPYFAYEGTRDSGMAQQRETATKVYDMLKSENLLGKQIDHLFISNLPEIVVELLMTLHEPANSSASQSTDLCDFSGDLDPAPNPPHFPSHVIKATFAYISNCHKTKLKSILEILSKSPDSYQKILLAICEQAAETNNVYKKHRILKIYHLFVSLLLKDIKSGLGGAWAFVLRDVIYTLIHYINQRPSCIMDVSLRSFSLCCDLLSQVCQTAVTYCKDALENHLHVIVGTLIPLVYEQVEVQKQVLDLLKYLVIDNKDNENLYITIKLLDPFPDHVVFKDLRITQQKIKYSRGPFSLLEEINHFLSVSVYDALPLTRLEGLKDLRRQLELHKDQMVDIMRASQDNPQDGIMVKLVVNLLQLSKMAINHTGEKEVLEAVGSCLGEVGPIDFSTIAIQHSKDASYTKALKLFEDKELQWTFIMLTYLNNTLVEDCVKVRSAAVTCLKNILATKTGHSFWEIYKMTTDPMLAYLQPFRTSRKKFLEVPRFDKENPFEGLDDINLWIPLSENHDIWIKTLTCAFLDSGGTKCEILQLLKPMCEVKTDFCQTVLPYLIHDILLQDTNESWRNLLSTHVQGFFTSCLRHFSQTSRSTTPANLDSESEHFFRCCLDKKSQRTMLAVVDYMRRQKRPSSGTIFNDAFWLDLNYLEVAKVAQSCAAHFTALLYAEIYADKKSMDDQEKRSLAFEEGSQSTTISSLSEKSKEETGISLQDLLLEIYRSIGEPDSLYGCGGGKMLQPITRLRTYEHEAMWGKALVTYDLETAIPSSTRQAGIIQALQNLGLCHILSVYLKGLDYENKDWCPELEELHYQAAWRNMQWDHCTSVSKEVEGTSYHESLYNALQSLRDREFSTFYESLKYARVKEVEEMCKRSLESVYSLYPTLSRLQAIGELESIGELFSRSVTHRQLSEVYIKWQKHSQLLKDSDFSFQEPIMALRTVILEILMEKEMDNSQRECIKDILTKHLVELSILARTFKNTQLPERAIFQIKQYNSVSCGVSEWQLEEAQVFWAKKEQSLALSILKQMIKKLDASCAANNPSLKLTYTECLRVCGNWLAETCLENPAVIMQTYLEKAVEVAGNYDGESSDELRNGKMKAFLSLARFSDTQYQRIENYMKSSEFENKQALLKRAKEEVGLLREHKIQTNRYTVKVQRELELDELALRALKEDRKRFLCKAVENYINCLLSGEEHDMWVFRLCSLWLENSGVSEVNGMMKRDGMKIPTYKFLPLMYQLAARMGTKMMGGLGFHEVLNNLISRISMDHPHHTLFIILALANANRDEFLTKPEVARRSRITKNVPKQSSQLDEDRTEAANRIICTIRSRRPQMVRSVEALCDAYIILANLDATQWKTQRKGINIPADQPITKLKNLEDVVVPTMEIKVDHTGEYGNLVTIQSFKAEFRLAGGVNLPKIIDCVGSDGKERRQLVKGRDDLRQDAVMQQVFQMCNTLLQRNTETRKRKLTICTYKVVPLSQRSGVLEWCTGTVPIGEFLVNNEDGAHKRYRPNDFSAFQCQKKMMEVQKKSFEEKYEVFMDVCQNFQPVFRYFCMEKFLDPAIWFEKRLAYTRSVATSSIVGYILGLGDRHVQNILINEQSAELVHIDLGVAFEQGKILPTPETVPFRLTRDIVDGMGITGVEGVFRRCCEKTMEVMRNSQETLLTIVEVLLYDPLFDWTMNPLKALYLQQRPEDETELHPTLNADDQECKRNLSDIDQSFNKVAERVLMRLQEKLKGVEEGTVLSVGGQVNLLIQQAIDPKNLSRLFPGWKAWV
In short: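 Full-length enzyme, expressed in a mammalian cell line, pre-incubated 15 min with inhibitor in 25 mM HEPES pH 8.0, 10 mM Mg(CH3COO)2, 1 mM MnCl2, 0,1% BSA, 0,01% Brij 35, 5 mM DTT. Full-length cmyc-p53 (Sf21-expressed) and ATP then added, 30-35 min at 22° C. EDTA stop; p53 S15 phosphorylation read by TR-FRET antibodies.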

PI3K p110β/p85α (human) = PI3K p110β/p85α (human) (Homo sapiens (Human), UniProt P42338); test: PI3K p110β/p85α (human), non-radioactive assay (HTRF); format: biochemical
Protocol: PI3K p110β/p85α (Human), Non-radioactive Assay
PI3K p110β/p85α (human) was incubated in an assay buffer comprising 10 μM phosphati-dylinositol 4,5-bisphosphate and MgATP (concentration as necessary). The reaction was initiated by addition of MgATP solution. After an incubation time of 30 min at room temperature, the reaction was stopped by addition of a solution consisting of EDTA and biotinylated phosphatidylinositol 3,4,5-trisphosphate. Finally, the detection buffer, consisting of a europium-labelled anti-GST monoclonal antibody, a GST-labelled GRP1 PH domain and streptavidin allophycocyanin, was added. The plate was read out via homogeneous time-resolved fluorescence (HTRF) and the corresponding signals were evaluated via the formula HTRF=10000×(Em665nm/Em620nm).

PI3K (p120γ) (human) = PI3K (p120γ) (human) (Homo sapiens (Human), UniProt P48736); test: PI3K (p120γ) (human), non-radioactive assay (HTRF); format: biochemical; settings: read-out: IC50 (PI3Kgamma)
In short: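 Enzyme was run with 10 μM phosphatidylinositol 4,5-bisphosphate, starting the reaction with MgATP at an unspecified level, for 30 min at room temperature. The stop used EDTA plus biotinylated PIP3, and detection used Eu-anti-GST, GST-GRP1 PH domain and streptavidin-APC. Signal was taken as HTRF = 10000×(Em665nm/Em620nm).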

mTOR (human) = mTOR (human) (Homo sapiens (Human), UniProt P42345); test: mTOR (human) kinase assay, [γ-33P-ATP] filter assay; format: biochemical
Protocol: Furthermore, the effect, in particular inhibition, of other kinases and thus the selectivity of the compounds according to the invention can be determined with the aid of the following assay:
mTOR (human) was incubated with 50 mM HEPES pH 7.5, 1 mM EGTA, 0.01% Tween 20, 2 mg/ml of the substrate, 3 mM MnCl2 and [γ-^33P-ATP] (specific activity approximately 500 cpm/pmol, concentration as necessary). The reaction was initiated by addition of MgATP solution. After incubation at room temperature for 40 minutes, the reaction was stopped by addition of 3% phosphoric acid. 10 μl of the reaction solution were then transferred dropwise onto a P30 filtermat and washed three times for 5 min in 75 mM phosphoric acid and once in methanol, dried and evaluated by means of liquid scintillation counting.

PI3K p110δ/p85α (human) = PI3K p110δ/p85α (human) (Homo sapiens (Human), UniProt O00329); test: PI3K p110δ/p85α (human), non-radioactive assay (HTRF); format: biochemical; settings: read-out: IC50 (PI3Kdelta)
PI3K p110δ/p85α (human), sequence (O00329 whole entry): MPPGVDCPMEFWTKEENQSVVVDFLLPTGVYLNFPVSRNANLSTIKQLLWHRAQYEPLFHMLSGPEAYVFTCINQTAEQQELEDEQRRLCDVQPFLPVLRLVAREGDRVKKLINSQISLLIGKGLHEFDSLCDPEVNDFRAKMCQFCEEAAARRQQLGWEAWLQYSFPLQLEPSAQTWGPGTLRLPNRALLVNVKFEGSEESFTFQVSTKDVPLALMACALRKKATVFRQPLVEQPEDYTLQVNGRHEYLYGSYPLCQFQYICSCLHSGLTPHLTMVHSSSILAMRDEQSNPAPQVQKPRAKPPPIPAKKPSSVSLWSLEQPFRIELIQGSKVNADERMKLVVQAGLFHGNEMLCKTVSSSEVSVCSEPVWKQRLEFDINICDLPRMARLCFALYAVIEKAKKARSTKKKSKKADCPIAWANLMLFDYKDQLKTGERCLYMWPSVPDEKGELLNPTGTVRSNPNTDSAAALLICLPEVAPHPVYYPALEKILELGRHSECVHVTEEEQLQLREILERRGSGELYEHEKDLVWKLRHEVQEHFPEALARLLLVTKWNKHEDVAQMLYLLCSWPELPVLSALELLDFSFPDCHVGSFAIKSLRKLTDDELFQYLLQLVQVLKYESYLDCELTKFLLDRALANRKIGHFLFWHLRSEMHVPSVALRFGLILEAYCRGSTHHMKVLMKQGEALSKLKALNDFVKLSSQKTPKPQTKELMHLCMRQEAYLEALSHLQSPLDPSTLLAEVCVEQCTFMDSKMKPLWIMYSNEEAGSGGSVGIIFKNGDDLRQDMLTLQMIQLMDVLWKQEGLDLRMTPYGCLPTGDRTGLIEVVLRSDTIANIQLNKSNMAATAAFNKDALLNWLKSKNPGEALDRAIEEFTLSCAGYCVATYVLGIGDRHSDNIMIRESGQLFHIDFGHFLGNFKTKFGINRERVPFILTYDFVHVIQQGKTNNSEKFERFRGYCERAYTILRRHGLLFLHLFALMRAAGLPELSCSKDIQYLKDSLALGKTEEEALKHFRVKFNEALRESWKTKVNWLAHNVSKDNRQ
PI3K p110δ/p85α (human), sequence (P27986 whole entry partner): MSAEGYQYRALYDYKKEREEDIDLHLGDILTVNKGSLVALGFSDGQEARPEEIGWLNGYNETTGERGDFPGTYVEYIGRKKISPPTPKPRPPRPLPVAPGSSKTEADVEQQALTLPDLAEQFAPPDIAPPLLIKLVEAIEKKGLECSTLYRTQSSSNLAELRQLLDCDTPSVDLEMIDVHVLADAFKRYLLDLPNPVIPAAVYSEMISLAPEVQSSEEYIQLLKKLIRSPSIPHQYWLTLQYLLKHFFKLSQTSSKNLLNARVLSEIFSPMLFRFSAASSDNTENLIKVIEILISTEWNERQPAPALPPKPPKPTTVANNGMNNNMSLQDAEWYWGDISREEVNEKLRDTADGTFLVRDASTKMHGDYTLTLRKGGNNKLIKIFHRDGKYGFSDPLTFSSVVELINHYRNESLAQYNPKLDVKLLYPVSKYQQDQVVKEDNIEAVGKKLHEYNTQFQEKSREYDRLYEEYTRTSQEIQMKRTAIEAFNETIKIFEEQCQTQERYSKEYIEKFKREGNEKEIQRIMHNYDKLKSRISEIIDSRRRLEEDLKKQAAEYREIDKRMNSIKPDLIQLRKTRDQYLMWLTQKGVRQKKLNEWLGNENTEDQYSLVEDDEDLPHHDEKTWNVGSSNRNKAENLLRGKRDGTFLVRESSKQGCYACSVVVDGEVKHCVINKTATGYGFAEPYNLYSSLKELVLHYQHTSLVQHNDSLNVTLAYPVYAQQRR

PI3K p110α/p85α (human) = PI3K p110α/p85α (human) (Homo sapiens (Human), UniProt P42336); test: PI3K p110α/p85α (human), non-radioactive assay (HTRF); format: biochemical; settings: read-out: IC50 (PI3Kalpha)

| SMILES | IC50 [1] [µM] | IC50 [2] [µM] | IC50 ([2]; 10 μM ATP, substrate p53) [µM] | IC50 (PI3K p110β/p85α (human); read-out: IC50 (PI3Kbeta)) [µM] | IC50 (PI3K (p120γ) (human)) [µM] | IC50 (mTOR (human)) [µM] | IC50 (PI3K p110δ/p85α (human)) [µM] | IC50 (PI3K p110α/p85α (human)) [µM] | IC50 (PI3K p110β/p85α (human)) [µM] |
| --- | --- | --- | --- | --- | --- | --- | --- | --- | --- |
| COc1cc2ncc3c(c2cc1-c1cnn(C)c1)n(-c1c(F)cncc1OC)c(=O)n3C [Compound Example 15, 1-(3-Fluoro-5-methoxypyridin-4-yl)-7-methoxy-3-methyl-8-(1-methyl-1H-pyrazol-4-yl)-1,3-dihydroimidazo[4,5-c]-quinolin-2-one] | < 0.2 | < 0.001 | < 0.001 | > 30 | > 30 | > 30 | > 30 | > 30 |  |
| COc1cc2ncc3c(c2cc1-c1cn[nH]c1)n(-c1ccnn1C)c(=O)n3C [Compound Example 41, 7-Methoxy-3-methyl-1-(2-methyl-2H-pyrazol-3-yl)-8-(1H-pyrazol-4-yl)-1,3-dihydroimidazo[4,5-c] quinolin-2-one] | 0.2 to 1 | < 0.01 | < 0.01 | > 30 | > 30 | > 10 | > 30 | > 30 |  |
| COc1cc2ncc3c(c2cc1-c1cnn(C)c1)n(-c1ccncc1Cl)c(=O)n3C [compound 60, 1-(3-Chloropyridin-4-yl)-7-methoxy-3-methyl-8-(1-methyl-1H-pyrazol-4-yl)-1,3-dihydroimidazo[4,5-c] quinolin-2-one] | 1 to 2 | < 0.01 | < 0.01 | > 30 | > 30 | > 30 | > 30 | > 30 |  |
| COc1cc2ncc3c(c2cc1-c1cnn(C)c1)n(-c1ccncc1)c(=O)n3C [compound 58, 7-Methoxy-3-methyl-8-(1-methyl-1H-pyrazol-4-yl)-1-pyridin-4-yl-1,3-dihydro-imidazo[4,5-c]quinolin-2-one] | 0.2 to 1 | < 0.01 | < 0.01 | > 30 | > 30 | > 30 | > 30 | > 30 |  |
| COc1cc2ncc3c(c2cc1-c1cnn(C)c1)n(-c1ncccc1F)c(=O)n3C [Compound Example 14, 1-(3-Fluoropyridin-2-yl)-7-methoxy-3-methyl-8-(1-methyl-1H-pyrazol-4-yl)-1,3-dihydroimidazo[4,5-c]-quinolin-2-one] | < 0.2 | < 0.001 | < 0.001 | > 30 | > 30 | > 30 | > 30 | > 30 |  |
| COc1cc2ncc3c(c2cc1-c1cnn(C)c1)n(-c1ccnn1C)c(=O)n3C [Compound Example 49, 7-Methoxy-3-methyl-1-(2-methyl-2H-pyrazol-3-yl)-8-(1-methyl-1H-pyrazol-4-yl)-1,3-dihydroimidazo[4,5-c]-quinolin-2-one] | 0.2 to 1 | < 0.01 | < 0.01 | > 30 | > 30 | > 30 | > 30 | > 30 |  |
| COc1cc2ncc3c(c2cc1-c1cn[nH]c1)n(-c1cn(C)nc1C)c(=O)n3C [Example 3] | < 0.2 | < 0.001 | < 0.001 |  | > 30 | > 5 | > 30 | > 30 | > 30 |
| COc1cc2ncc3c(c2cc1-c1cnn(C)c1)n(-c1ncncc1F)c(=O)n3C [Compound Example 31, 1-(5-Fluoropyrimidin-4-yl)-7-methoxy-3-methyl-8-(1-methyl-1H-pyrazol-4-yl)-1H,2H,3H-imidazo[4,5-c] quinolin-2-one hydrochloride] | < 0.2 | < 0.01 | < 0.01 | > 30 | > 30 | > 30 | > 30 | > 30 |  |
| CCn1cc(-c2cc3c(cc2OC)ncc2c3n(-c3ncccc3F)c(=O)n2C)cn1 [Compound Example 24, 8-(1-Ethyl-1H-pyrazol-4-yl)-1-(3-fluoropyridin-2-yl)-7-methoxy-3-methyl-1,3-dihydroimidazo[4,5-c] quinolin-2-one] | < 0.2 | < 0.001 | < 0.001 | > 30 | > 30 | > 30 | > 30 | > 30 |  |
| COc1cc2ncc3c(c2cc1-c1cnn(C)c1)n(-c1cn(C)cn1)c(=O)n3C [compound 59, 7-Methoxy-3-methyl-1-(1-methyl-1H-imidazol-4-yl)-8-(1-methyl-1H-pyrazol-4-yl)-1,3-dihydroimidazo[4,5-c] quinolin-2-one] | 1 to 2 | < 0.01 | < 0.01 | > 30 | > 30 | > 30 | > 30 | > 30 |  |
| COc1cc2ncc3c(c2cc1-c1cn[nH]c1)n(-c1ncccc1F)c(=O)n3C [Compound Example 7, 1-(3-Fluoropyridin-2-yl)-7-methoxy-3-methyl-8-(1H-pyrazol-4-yl)-1,3-dihydro-imidazo[4,5-c]quinolin-2-one] | < 0.2 | < 0.001 | < 0.001 | > 30 | > 30 | > 30 | > 30 | > 30 |  |
| COc1cc2ncc3c(c2cc1-c1cn[nH]c1)n(-c1cnn(C)c1)c(=O)n3C [Compound Example 17, 7-Methoxy-3-methyl-1-(1-methyl-1H-pyrazol-4-yl)-8-(1H-pyrazol-4-yl)-1,3-dihydroimidazo[4,5-c] quinolin-2-one] | < 0.2 | < 0.01 | < 0.001 | > 30 | > 30 | > 10 | > 30 | > 30 |  |
| COc1cc2ncc3c(c2cc1-c1cn[nH]c1)n(-c1csc(C)n1)c(=O)n3C [Compound Example 30, 7-Methoxy-3-methyl-1-(2-methylthiazol-4-yl)-8-(1H-pyrazol-4-yl)-1,3-dihydro-imidazo[4,5-c]quinolin-2-one] | < 0.2 | < 0.01 | < 0.01 | > 30 | > 30 | > 30 | > 30 | > 30 |  |
| COc1cc2ncc3c(c2cc1-c1cnn(C)c1)n(-c1ccncc1OC)c(=O)n3C [Compound Example 28, 7-Methoxy-1-(3-methoxy-pyridin-4-yl)-3-methyl-8-(1-methyl-1H-pyrazol-4-yl)-1,3-dihydroimidazo[4,5-c] quinolin-2-one] | < 0.2 | < 0.01 | < 0.01 | > 30 | > 30 | > 30 | > 30 | > 30 |  |
| COc1cc2ncc3c(c2cc1-c1cnn(C)c1)n(-c1c[nH]nc1C)c(=O)n3C [Compound Example 43, 7-Methoxy-3-methyl-1-(3-methyl-1H-pyrazol-4-yl)-8-(1-methyl-1H-pyrazol-4-yl)-1,3-dihydroimidazo[4,5-c]-quinolin-2-one] | 0.2 to 1 | < 0.001 | < 0.001 | > 30 | > 30 | > 30 | > 30 | > 30 |  |
| COc1cc2ncc3c(c2cc1-c1cnn(C)c1)n(-c1ccncc1C#N)c(=O)n3C [Compound Example 46, 4-[7-Methoxy-3-methyl-8-(1-methyl-1H-pyrazol-4-yl)-2-oxo-2,3-dihydroimidazo-[4,5-c]quinolin-1-yl]-nicotinonitrile] | 0.2 to 1 | < 0.05 | < 0.05 | > 30 | > 30 | > 30 | > 30 | > 30 |  |
